Earlier results in patent publication US7998959B2, “Modulators of 11-β hydroxyl steroid dehydrogenase type 1, pharmaceutical compositions thereof, and methods of using the same” (Incyte Corporation, priority 2006, dated 2011).

Key:
[1] = system: primary hippocampal cells
[2] = system: pancreatic islet cells of ob/ob mice
healthy volunteers = conditions: after seven days of treatment

Which results are given for CC1(C)[C@@H](OC(=O)CCC(=O)O)CC[C@]2(C)[C@H]3C(=O)C=C4[C@@H]5C[C@@](C)(C(=O)O)CC[C@]5(C)CC[C@@]4(C)[C@]3(C)CC[C@@H]12 [carbenoxolone]?
protection from glucocorticoid-mediated exacerbation of excitatory amino acid neurotoxicity [1]: protects the cells from glucocorticoid-mediated exacerbation of excitatory amino acid neurotoxicity; negative effects of glucocorticoids on bone nodule formation (bone nodule formation): attenuate the negative effects of glucocorticoids on bone nodule formation; glucose-stimulated insulin release [2]: improves glucose-stimulated insulin release; IOP reduced (healthy volunteers): 18%
